Patent publication US9949369B2, “Cyanate ester compound, curable resin composition containing the same, and hardened product thereof” (MITSUBISHI GAS CHEMICAL COMPANY, INC., priority 2013, dated 2018)

Assay: Solubility of the cyanate ester monomer in methyl ethyl ketone (MEK)
Format: physicochemical
Details: 25° C.

Compound: CC12CC3(C)CC(c4ccc(OC#N)cc4)(C1)CC(c1ccc(OC#N)cc1)(C2)C3 [AMTCN, 1,3-Bis(4-Cyanatophenyl)-5,7-Dimethyladamantane]
- amount that could be dissolved in methyl ethyl ketone (MEK): ≥ 50 % by mass

Compound: Cc1cc(C23CC4(C)CC(C)(C2)CC(c2ccc(OC#N)c(C)c2)(C4)C3)ccc1OC#N [AMTcCN, 1,3-Bis(3-Methyl-4-Cyanatophenyl)-5,7-Dimethyladamantane]
- amount that could be dissolved in methyl ethyl ketone (MEK): ≥ 50 % by mass
